Legend:
[1] = tested on: second amniotic fluid-derived cell line; assay: Two high dose trichostatin A treatments (first 48 h), gene expression by RT-PCR (Example 9); type: cell-based, human; settings: for Gata1 gene expression / HNF-3 beta gene expression / Insulin gene expression / Pdx-1 gene expression / sox17 gene expression: 1.25 μM 0-48 h + 96-120 h;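 for Gata-1 RT-PCR detection cycle: lower cycle number means higher gene expression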;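 for HNF-3 beta RT-PCR detection cycle: lower cycle number means higher gene expression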
Method: (§1) Several cell lines obtained from different amniotic fluid specimens (see Example 14) and pancreas donors (see Example 13) were tested with similar results. Two lines at similar passage number but derived from different amniotic fluid specimens are shown in Table VIII-A and Table VIII-B for this example. One of these cell lines was also used in examples 2 and 4 above. In addition, this example also contains comparison data in Table VIII-C and Table VIII-D for a single pancreatic-derived stromal line grown to early and late passage number.
(§2) Amniotic fluid derived cells or pancreatic-derived stromal cells were seeded into 24-well tissue culture plates at a density of 5000/cm^2 and cultured in AMNIOMAX (Invitrogen) or DMEM with 10% FBS respectively under standard cell culture conditions until confluent. After reaching confluence, amniotic fluid derived cells were treated at time 0 hours with a dose of 1.25 μM trichostatin A, and pancreatic-derived stromal cells were treated with a dose of 5.0 μM trichostatin A solubilized in DMSO and medium. At time 48 hours, cell cultures underwent a complete medium change to remove all traces of trichostatin A. At time 96 hours, cell cultures were re-fed with fresh medium and received a second dose of trichostatin A at the same concentration as used previously. At time 120 hours, cell cultures again underwent a complete medium change and were cultured for an additional 24 hours or […] total incubation time. Samples were taken for RT-PCR at the times indicated in Table IX-A to D. RNA samples were obtained daily from the start of the experiment. Culture medium was removed, and cells were washed with PBS then collected in RLT with β-mercaptoethanol (Qiagen). RNA was purified using the RNeasy Mini Kit (Qiagen) and RNA quantity and quality was determined using a spectrophotometer. cDNA was made using the iScript cDNA synthesis kit (BioRad). Human pancreas cDNA was included as a control. Results were normalized against GAPDH expression levels.
(§3) Gene expression levels of Sox17, HNF-3 beta, Pdx-1, insulin, and glucagon were analyzed in amniotic-derived cells, while expression levels of glucagon, insulin, HNF-3 beta, and Pdx-1 were analyzed in pancreas-derived cells. Samples of 20 ng cDNA was used in each Real-Time PCR reaction. RT-PCR was performed on the Applied Biosystems 7500, according to the methods described in Example 15. The data were analyzed using the accompanying software.
(§4) Real-time PCR amplifcation and quantitative analysis. Unless otherwise stated, all reagents were purchased from Applied Biosystems. Real-time PCR reactions were performed using the ABI PRISM™ 7500 Sequence Detection System. TAQMAN™ FAST UNIVERSAL PCR MASTER MIX™ (ABI, CA) was used with 20 ng of reverse transcribed RNA in a total reaction volume of 20 μl. Each cDNA sample was run in duplicate to allow correction of pipetting errors. Primers and FAM-labeled TAQMAN™ probes were used at concentrations of 200 nM. The level of expression for each target gene was normalized using the pre-developed Applied Biosystem's human glyceraldehyde-3-phosphate dehydrogenase (GAPDH) endogenous control kit. Primers and probes were designed using either ABI PRISM PRIMER EXPRESS™ software or a pre-developed ABI gene analysis kit. For each gene, either one of the primers or the probe were designed to be exon-boundary spanning. This eliminated the possibility of the primers/probe binding to any genomic DNA present. The primer and probe sets are listed as follows: Pdx-1 (Hs00426216), Insulin (Hs00355773), glucagon (Hs00174967), and FoxA2 (HNF 3-beta) (Hs00232764). The remaining primers were designed using the PRIMERS program (ABI, CA). After an initial 95° C. incubation for 20 sec, samples were cycled 40 times in two stages: a denaturation step at 95° C. for 3 sec, followed by an annealing/extension step at 60° C. for 30 sec. […]

[2] = tested on: late passage (P11) pancreatic-derived stromal cell line; assay: as above; type: cell-based, human; settings: for HNF-3 beta gene expression / Insulin gene expression / Pdx-1 gene expression / glucagon gene expression: 5 μM 0-48 h + 96-120 h; for HNF-3 beta RT-PCR detection cycle / Pdx-1 RT-PCR detection cycle / glucagon RT-PCR detection cycle: 5.0 μM;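 for HNF-3 beta RT-PCR detection cycle: lower cycle number means higher gene expression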;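 for glucagon RT-PCR detection cycle: lower cycle number means higher gene expression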
Method: as §1, §2, §3, §4

[3] = 1.25 μM, following the second treatment
[4] = for 48 hours following addition
[5] = once trichostatin A was added again

## CC(/C=C/C(=O)NO)=C\[C@@H](C)C(=O)c1ccc(N(C)C)cc1 [trichostatin A]
[1]; 24 hrs
  Gata1 gene expression: + (detectable between 35 and 40 cycles by RT-PCR)
  HNF-3 beta gene expression: +++ (detectable at less than 35 cycles by RT-PCR with SE less than 0.9)
  Insulin gene expression: nd (not detectable at >40 cycles by RT-PCR)
  Pdx-1 gene expression: ++ (detectable at less than 35 cycles by RT-PCR with SE greater than 0.9)
  sox17 gene expression: +++ (detectable at less than 35 cycles by RT-PCR with SE less than 0.9)
[1]; 48 hrs
  Gata1 gene expression: nd (not detectable at >40 cycles by RT-PCR)
  HNF-3 beta gene expression: +++ (detectable at less than 35 cycles by RT-PCR with SE less than 0.9)
  Insulin gene expression: nd (not detectable at >40 cycles by RT-PCR)
  Pdx-1 gene expression: + (detectable between 35 and 40 cycles by RT-PCR)
  sox17 gene expression: +++ (detectable at less than 35 cycles by RT-PCR with SE less than 0.9)
[1]; 72 hrs
  Gata1 gene expression: nd (not detectable at >40 cycles by RT-PCR)
  HNF-3 beta gene expression: +++ (detectable at less than 35 cycles by RT-PCR with SE less than 0.9)
  Insulin gene expression: nd (not detectable at >40 cycles by RT-PCR)
  Pdx-1 gene expression: nd (not detectable at >40 cycles by RT-PCR)
  sox17 gene expression: +++ (detectable at less than 35 cycles by RT-PCR with SE less than 0.9)
[1]; 96 hrs
  Gata1 gene expression: nd (not detectable at >40 cycles by RT-PCR)
  HNF-3 beta gene expression: + (detectable between 35 and 40 cycles by RT-PCR)
  Insulin gene expression: nd (not detectable at >40 cycles by RT-PCR)
  Pdx-1 gene expression: nd (not detectable at >40 cycles by RT-PCR)
  sox17 gene expression: +++ (detectable at less than 35 cycles by RT-PCR with SE less than 0.9)
[1]; 120 hrs
  Gata1 gene expression: + (detectable between 35 and 40 cycles by RT-PCR)
  HNF-3 beta gene expression: +++ (detectable at less than 35 cycles by RT-PCR with SE less than 0.9)
  Insulin gene expression: nd (not detectable at >40 cycles by RT-PCR)
  Pdx-1 gene expression: +++ (detectable at less than 35 cycles by RT-PCR with SE less than 0.9)
  sox17 gene expression: +++ (detectable at less than 35 cycles by RT-PCR with SE less than 0.9)
[1]; 1.25 μM, by 96 hours
  HNF-3 beta RT-PCR detection cycle: 37 cycles
[1]; 1.25 μM, first 72 hours
  HNF-3 beta RT-PCR detection cycle: 34 cycles
[1]; 1.25 μM, following the initial 48-hour treatment
  Pdx-1 RT-PCR detection cycle: 35 cycles
[1]; [3]
  Gata-1 RT-PCR detection cycle: 38 cycles
  HNF-3 beta RT-PCR detection cycle: 33 cycles
  Pdx-1 RT-PCR detection cycle: 34 cycles
[2]; 24 hrs
  HNF-3 beta gene expression: +++ (detectable at less than 35 cycles by RT-PCR with SE less than 0.9)
  Insulin gene expression: nd (not detectable at >40 cycles by RT-PCR)
  Pdx-1 gene expression: + (detectable between 35 and 40 cycles by RT-PCR)
  glucagon gene expression: +++ (detectable at less than 35 cycles by RT-PCR with SE less than 0.9)
[2]; 48 hrs
  HNF-3 beta gene expression: +++ (detectable at less than 35 cycles by RT-PCR with SE less than 0.9)
  Insulin gene expression: nd (not detectable at >40 cycles by RT-PCR)
  Pdx-1 gene expression: +++ (detectable at less than 35 cycles by RT-PCR with SE less than 0.9)
  glucagon gene expression: +++ (detectable at less than 35 cycles by RT-PCR with SE less than 0.9)
[2]; 72 hrs
  HNF-3 beta gene expression: nd (not detectable at >40 cycles by RT-PCR)
  Insulin gene expression: nd (not detectable at >40 cycles by RT-PCR)
  Pdx-1 gene expression: nd (not detectable at >40 cycles by RT-PCR)
  glucagon gene expression: + (detectable between 35 and 40 cycles by RT-PCR)
[2]; 96 hrs
  HNF-3 beta gene expression: nd (not detectable at >40 cycles by RT-PCR)
  Insulin gene expression: nd (not detectable at >40 cycles by RT-PCR)
  Pdx-1 gene expression: nd (not detectable at >40 cycles by RT-PCR)
  glucagon gene expression: nd (not detectable at >40 cycles by RT-PCR)
[2]; 120 hrs
  HNF-3 beta gene expression: +++ (detectable at less than 35 cycles by RT-PCR with SE less than 0.9)
  Insulin gene expression: + (detectable between 35 and 40 cycles by RT-PCR)
  Pdx-1 gene expression: +++ (detectable at less than 35 cycles by RT-PCR with SE less than 0.9)
  glucagon gene expression: + (detectable between 35 and 40 cycles by RT-PCR)
[2]; after addition
  HNF-3 beta RT-PCR detection cycle: 32 cycles
  Pdx-1 RT-PCR detection cycle: 31 cycles
[2]; after addition (for 48 hours)
  glucagon RT-PCR detection cycle: 33 cycles
[2]; following the removal
  glucagon RT-PCR detection cycle: 37 cycles
[2]; [4]
  HNF-3 beta RT-PCR detection cycle: 33 cycles
  Pdx-1 RT-PCR detection cycle: 32 cycles
[2]; [5]
  HNF-3 beta RT-PCR detection cycle: 34 cycles
  Pdx-1 RT-PCR detection cycle: 33 cycles
[2]; second treatment
  glucagon RT-PCR detection cycle: 35 cycles

— patent US20080063628A1, “METHODS TO PROMOTE CELL DIFFERENTIATION” (priority 2006, published 2008)
